# From PMC8580319, “Dual activities of ACC synthase: Novel clues regarding the molecular evolution of ACS genes” (Science Advances, 2021)
# Legend:
# Details in all cases: Cβ-S lyase activity; 4 mM L-cystine, 100 μM PLP, 30°C
# OsACS1 = target: T1, OsACS1 (Oryza sativa, UniProt A2XLL2); experiment: pyruvate formation, […],4-dinitrophenylhydrazine, A520; assay type: biochemical
# T1 construct: gene ACC1; recombinant, His or GST tag, from E. coli
# T1 sequence (A2XLL2 1-487): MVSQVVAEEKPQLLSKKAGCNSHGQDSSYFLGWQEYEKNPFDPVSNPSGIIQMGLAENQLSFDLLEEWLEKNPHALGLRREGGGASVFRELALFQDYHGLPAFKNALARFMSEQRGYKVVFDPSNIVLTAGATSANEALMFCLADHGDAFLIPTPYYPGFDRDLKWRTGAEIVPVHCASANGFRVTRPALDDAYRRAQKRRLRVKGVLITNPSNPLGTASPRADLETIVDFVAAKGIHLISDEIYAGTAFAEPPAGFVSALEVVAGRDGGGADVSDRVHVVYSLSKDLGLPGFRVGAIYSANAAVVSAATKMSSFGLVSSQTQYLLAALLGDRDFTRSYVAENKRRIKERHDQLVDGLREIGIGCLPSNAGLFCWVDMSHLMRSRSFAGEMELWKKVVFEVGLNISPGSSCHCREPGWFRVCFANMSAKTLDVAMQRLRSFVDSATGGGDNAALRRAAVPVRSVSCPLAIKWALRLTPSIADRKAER
# GmACS7-like = target: T2, GmACS7-like (Glycine max, UniProt I1K634); experiment: as above; assay type: biochemical
# T2 construct: gene LOC100799562; recombinant, His or GST tag, from E. coli
# T2 sequence (I1K634 1-440): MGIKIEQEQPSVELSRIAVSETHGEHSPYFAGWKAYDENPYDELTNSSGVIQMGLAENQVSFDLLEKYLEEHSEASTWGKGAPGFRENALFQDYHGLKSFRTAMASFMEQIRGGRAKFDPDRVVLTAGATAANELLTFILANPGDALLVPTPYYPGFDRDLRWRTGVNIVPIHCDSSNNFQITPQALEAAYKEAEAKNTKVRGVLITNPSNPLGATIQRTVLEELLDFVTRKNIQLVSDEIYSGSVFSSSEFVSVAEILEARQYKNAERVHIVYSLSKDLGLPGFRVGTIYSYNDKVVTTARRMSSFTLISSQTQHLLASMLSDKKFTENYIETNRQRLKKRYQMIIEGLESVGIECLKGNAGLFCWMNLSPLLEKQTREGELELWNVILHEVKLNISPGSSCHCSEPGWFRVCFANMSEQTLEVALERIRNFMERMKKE
# AtACS8 = target: T3, AtACS8 (Arabidopsis thaliana, UniProt Q9T065); experiment: as above; assay type: biochemical
# T3 construct: gene ACS8; recombinant, His or GST tag, from E. coli
# T3 sequence (Q9T065 1-469): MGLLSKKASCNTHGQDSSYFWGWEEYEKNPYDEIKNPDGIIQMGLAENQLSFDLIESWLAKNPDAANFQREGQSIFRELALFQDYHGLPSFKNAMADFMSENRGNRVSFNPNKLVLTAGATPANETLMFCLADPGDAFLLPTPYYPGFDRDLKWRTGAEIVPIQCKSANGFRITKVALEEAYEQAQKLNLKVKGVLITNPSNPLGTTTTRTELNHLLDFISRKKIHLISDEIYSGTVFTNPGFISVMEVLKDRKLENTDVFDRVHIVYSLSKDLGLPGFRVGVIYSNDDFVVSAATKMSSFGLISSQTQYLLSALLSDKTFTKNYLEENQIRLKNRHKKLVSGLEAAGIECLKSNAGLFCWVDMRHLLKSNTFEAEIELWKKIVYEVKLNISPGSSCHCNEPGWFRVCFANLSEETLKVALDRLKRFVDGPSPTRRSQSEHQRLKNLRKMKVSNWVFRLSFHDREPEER
# AtACS11 = target: T4, AtACS11 (Arabidopsis thaliana, UniProt Q9S9U6); experiment: as above; assay type: biochemical
# T4 construct: gene ACS11; recombinant, His or GST tag, from E. coli
# T4 sequence (Q9S9U6 1-460): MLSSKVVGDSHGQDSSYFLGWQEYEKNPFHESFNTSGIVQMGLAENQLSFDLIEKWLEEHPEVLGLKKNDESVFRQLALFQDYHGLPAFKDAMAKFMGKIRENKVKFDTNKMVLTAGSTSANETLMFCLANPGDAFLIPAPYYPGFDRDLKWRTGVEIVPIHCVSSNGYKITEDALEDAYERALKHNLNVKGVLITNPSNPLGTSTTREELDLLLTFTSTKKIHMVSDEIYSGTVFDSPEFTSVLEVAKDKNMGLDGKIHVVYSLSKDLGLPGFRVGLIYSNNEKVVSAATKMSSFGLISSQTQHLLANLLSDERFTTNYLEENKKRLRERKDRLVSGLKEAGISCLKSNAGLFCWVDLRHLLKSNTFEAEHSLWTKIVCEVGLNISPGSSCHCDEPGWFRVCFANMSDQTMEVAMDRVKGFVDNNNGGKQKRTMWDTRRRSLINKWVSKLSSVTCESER
# SlACS4 = target: T5, SlACS4 (Solanum lycopersicum, UniProt P29535); experiment: as above; assay type: biochemical
# T5 construct: gene ACS4; recombinant, His or GST tag, from E. coli
# T5 sequence (P29535 whole entry): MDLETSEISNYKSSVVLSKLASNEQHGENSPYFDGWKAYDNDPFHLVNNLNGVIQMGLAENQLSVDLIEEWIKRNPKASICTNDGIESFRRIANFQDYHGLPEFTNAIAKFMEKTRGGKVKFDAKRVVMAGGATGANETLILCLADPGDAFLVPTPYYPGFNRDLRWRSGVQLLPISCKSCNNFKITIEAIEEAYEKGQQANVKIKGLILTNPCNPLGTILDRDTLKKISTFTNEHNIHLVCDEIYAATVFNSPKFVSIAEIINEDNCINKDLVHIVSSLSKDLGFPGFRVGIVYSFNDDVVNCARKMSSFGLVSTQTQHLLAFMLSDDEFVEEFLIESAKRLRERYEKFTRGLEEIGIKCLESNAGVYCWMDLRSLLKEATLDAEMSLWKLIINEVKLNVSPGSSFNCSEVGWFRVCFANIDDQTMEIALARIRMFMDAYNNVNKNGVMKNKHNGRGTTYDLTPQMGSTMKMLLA
# AtACS7 = target: T6, AtACS7 (Arabidopsis thaliana, UniProt Q9STR4, Q98A); experiment: as above; assay type: biochemical
# T6 construct: gene ACS7; recombinant from E. coli Rosetta 2 (DE3) pLysS; pET-28a (His) or pGEX-6p-1 (GST); His-tagged protein for crystals; dimer
# T6 sequence (Q9STR4 1-447 Q98A): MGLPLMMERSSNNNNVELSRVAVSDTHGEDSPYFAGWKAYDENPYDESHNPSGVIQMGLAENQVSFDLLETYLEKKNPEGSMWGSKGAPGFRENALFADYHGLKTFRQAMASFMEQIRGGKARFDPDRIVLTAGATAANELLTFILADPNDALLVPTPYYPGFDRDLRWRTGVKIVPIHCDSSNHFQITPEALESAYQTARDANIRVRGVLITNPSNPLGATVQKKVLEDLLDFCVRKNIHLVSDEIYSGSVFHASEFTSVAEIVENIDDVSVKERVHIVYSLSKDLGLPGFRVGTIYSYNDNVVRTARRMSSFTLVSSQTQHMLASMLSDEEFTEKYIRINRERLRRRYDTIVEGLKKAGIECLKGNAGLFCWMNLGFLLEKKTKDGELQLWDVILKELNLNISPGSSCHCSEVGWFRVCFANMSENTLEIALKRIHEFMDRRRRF
# OsACS5 = target: T7, OsACS5 (Oryza sativa, UniProt A0A0P0UZP7)
# T7 construct: gene ACS5
# T7 sequence (A0A0P0UZP7 whole entry): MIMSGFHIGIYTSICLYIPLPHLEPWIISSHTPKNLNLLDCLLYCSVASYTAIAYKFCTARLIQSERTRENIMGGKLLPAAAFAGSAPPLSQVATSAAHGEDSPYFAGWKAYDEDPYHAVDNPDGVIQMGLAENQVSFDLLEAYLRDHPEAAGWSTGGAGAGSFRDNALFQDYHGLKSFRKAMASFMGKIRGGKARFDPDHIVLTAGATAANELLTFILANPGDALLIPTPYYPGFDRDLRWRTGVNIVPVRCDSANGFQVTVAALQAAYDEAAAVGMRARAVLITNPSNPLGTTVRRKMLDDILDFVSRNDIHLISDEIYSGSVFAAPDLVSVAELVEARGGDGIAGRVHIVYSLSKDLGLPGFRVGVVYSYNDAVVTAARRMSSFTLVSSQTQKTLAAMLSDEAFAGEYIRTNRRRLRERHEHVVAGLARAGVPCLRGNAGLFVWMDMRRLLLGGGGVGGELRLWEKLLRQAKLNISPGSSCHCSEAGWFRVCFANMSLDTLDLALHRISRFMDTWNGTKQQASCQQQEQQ
compound,measurement,setting,value
N[C@@H](CSSC[C@H](N)C(=O)O)C(=O)O [L-cystine],"pyruvate formation, 2,4-dinitrophenylhydrazine, A520",OsACS1,all of them had ACS and Cβ-S lyase dual enzymatic activities
same,"pyruvate formation, 2,4-dinitrophenylhydrazine, A520",GmACS7-like,all of them had ACS and Cβ-S lyase dual enzymatic activities
same,"pyruvate formation, 2,4-dinitrophenylhydrazine, A520",AtACS8,all of them had ACS and Cβ-S lyase dual enzymatic activities
same,"pyruvate formation, 2,4-dinitrophenylhydrazine, A520",AtACS11,all of them had ACS and Cβ-S lyase dual enzymatic activities
same,"pyruvate formation, 2,4-dinitrophenylhydrazine, A520",SlACS4,all of them had ACS and Cβ-S lyase dual enzymatic activities
same,"pyruvate formation, 2,4-dinitrophenylhydrazine, A520",AtACS7,the mutant had high in vitro Cβ-S lyase activity
same,"pyruvate formation, 2,4-dinitrophenylhydrazine, A520",OsACS5,all of them had ACS and Cβ-S lyase dual enzymatic activities
